From patent US9926330B2, “Inhibitors of IRAK4 activity” (MERCK SHARP & DOHME CORP., priority 2014, dated 2018) come the findings set out here.

pIC50: −log10 of the molar value.

Chain of GST tagged IRAK4 (Q9NWZ3 whole entry): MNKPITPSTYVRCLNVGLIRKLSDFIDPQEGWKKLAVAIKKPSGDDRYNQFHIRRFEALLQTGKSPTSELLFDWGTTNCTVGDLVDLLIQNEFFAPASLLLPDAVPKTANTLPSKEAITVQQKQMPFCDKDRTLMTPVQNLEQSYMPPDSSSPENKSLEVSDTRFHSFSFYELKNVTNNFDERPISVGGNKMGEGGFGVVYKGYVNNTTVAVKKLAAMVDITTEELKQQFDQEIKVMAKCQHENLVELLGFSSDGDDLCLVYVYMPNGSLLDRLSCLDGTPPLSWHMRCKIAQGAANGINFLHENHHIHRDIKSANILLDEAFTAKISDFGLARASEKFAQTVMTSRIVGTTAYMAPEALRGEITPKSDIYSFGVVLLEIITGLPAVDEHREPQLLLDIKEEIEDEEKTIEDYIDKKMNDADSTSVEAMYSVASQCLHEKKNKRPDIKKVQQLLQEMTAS

In this test the target is GST tagged IRAK4 (Homo sapiens (Human), UniProt Q9NWZ3). As to the kind of experiment: IRAK4 Kinase Assay (IMAP fluorescence polarization). The conditions noted are these: 0.5 nM GST tagged IRAK4, 100 nM fluorescent peptide substrate RP7030, 100 μM ATP, 30 minutes at 25° C., IMAP FP readout. It is filed as biochemical. The protocol:
The kinase activity of IRAK4 is determined by its ability to catalyze the phosphorylation of a fluorescent polypeptide substrate. The extent of phosphorylation is measured using the IMAP technology (Molecular Devices) where the phosphorylated fluorescent substrate binds to the large M(III)-based nanoparticles which reduces the rotational speed of the substrate and thus increases its fluorescent polarization (FP).
20 μL reaction mixture contains 10 mM TriHCl, pH 7.2, 0.5 nM GST tagged IRAK4 (SignalChem), 100 nM fluorescent peptide substrate (RP7030, Molecular Devices), 100 μM ATP, 1 mM DDT, 1 mM MgCl2, and 0.01% Tween 20. The reaction is initiated by the addition of ATP. After incubation for 30 minutes at 25° C., 60 μL of Progressive IMAP Reagent (Molecular Devices) is added to stop the reaction. Change in RP7030's FP is determined by a FP reader (Analyst HT, LJL BioSystems).
On to `Cc1cc2ncnc(N[C@H]3CC[C@H](N(C)C)CC3)c2cc1C` [Example 1-1, (trans)-N1-(6,7-dimethylquinazolin-4-yl)-N4,N4-dimethylcyclohexane-1,4-diamine], for which the negative-log IC50 (pIC50) was 5.92. The value for `Cc1ccc2ncnc(N[C@H]3CC[C@H](N(C)C)CC3)c2c1` [Example 1-2, trans-N,N-dimethyl-N′-(6-methylquinazolin-4-yl)cyclohexane-1,4-diamine] was 7.72.

In the case of `Cc1ccc2ncnc(N[C@H]3CC[C@H](N4CCOCC4)CC3)c2c1` [Example 1-3, 6-methyl-N-(trans-4-morpholin-4-ylcyclohexyl)quinazolin-4-amine], the pIC50 is 7.92. Molecule `FC(F)(F)c1ccc2ncnc(N[C@H]3CC[C@H](N4CCOCC4)CC3)c2c1` [Example 1-4, N-(trans-4-morpholin-4-ylcyclohexyl)-6-(trifluoromethyl)quinazolin-4-amine] showed a negative-log IC50 (pIC50) of 7.82. The value for `Cc1cc2c(N[C@H]3CC[C@H](N4CCOCC4)CC3)ncnc2cc1F` [Example 1-5, 7-fluoro-6-methyl-N-(trans-4-morpholin-4-ylcyclohexyl)quinazolin-4-amine] was 7.49.

Consider `CN(C)[C@H]1CC[C@H](Nc2ncnc3ccc(C(F)(F)F)cc23)CC1` [Example 1-6, trans-N,N-dimethyl-N′-[6-(trifluoromethyl)quinazolin-4-yl]cyclohexane-1,4-diamine], for which the negative-log IC50 (pIC50) is 8.05.

As for `Cc1ccc2ncnc(O[C@H]3CC[C@H](N4CCOCC4)CC3)c2c1` [Example 1-7, 4-((trans)-4-((6-methylquinazolin-4-yl)oxy)cyclohexyl)morpholine], the pIC50 was 7.19. Then `Cc1ccc2ncnc(N[C@H]3CC[C@H](N4CC(S(C)(=O)=O)C4)CC3)c2c1` [Example 2-1, 6-methyl-N-((1R,4R)-4-(3-(methylsulfonyl)azetidin-1-yl)cyclohexyl)quinazolin-4-amine], with 6.42.

The molecule `Cc1ccc2ncnc(N[C@H]3CC[C@@H](N4CC(F)C4)CC3)c2c1` [Example 2-2, N-[cis-4-(3-fluoroazetidin-1-yl)cyclohexyl]-6-methylquinazolin-4-amine] gave a pIC50 of 5.86. This pIC50 is 0.56 log units lower than that of the molecule before.

As for `Cc1ccc2ncnc(N[C@H]3CC[C@H](N4CC(F)C4)CC3)c2c1` [Example 2-3, N-[trans-4-(3-fluoroazetidin-1-yl)cyclohexyl]-6-methylquinazolin-4-amine], the pIC50 was 7.03. Then `Cc1ccc2ncnc(N[C@H]3CC[C@@H](N4CCNC(=O)C4)CC3)c2c1` [Example 2-4, 4-{cis-4-[(6-methylquinazolin-4-yl)amino]cyclohexyl}piperazin-2-one], with 5.66; and `Cc1ccc2ncnc(N[C@H]3CC[C@H](N4CCNC(=O)C4)CC3)c2c1` [Example 2-5, 4-{trans-4-[(6-methylquinazolin-4-yl)amino]cyclohexyl}piperazin-2-one], with 6.95; and `Cc1ccc2ncnc(N[C@H]3CC[C@H](N4CC(O)C4)CC3)c2c1` [Example 2-6, 1-{trans-4-[(6-methylquinazolin-4-yl)amino]cyclohexyl}azetidin-3-ol], with 5.63.

Regarding `Cc1ccc2ncnc(N[C@H]3CC[C@@H](N4CC(O)C4)CC3)c2c1` [Example 2-7, 1-{cis-4-[(6-methylquinazolin-4-yl)amino]cyclohexyl}azetidin-3-ol], the pIC50 is 7.43. Then `Cc1ccc2ncnc(N[C@H]3CC[C@H](N4CCC(F)(F)C4)CC3)c2c1` [Example 2-8, N-[trans-4-(3,3-difluoropyrrolidin-1-yl)cyclohexyl]-6-methylquinazolin-4-amine], with 6.63; and `Cc1ccc2ncnc(N[C@H]3CC[C@H](N4CCC5(COC5)C4)CC3)c2c1` [Example 2-9, 6-methyl-N-[trans-4-(2-oxa-6-azaspiro[3.4]oct-6-yl)cyclohexyl]quinazolin-4-amine], with 7.02. Then `Cc1ccc2ncnc(N[C@H]3CC[C@@H](N4CC(S(C)(=O)=O)C4)CC3)c2c1` [Example 2-10, 6-methyl-N-{cis-4-[3-(methylsulfonyl)azetidin-1-yl]cyclohexyl}quinazolin-4-amine], with 6.42; and `Cc1ccc2ncnc(NC3CCC(N4CCC(C(F)(F)F)CC4)CC3)c2c1` (stereo not shown) [Example 2-11, 6-methyl-N-{4-[4-(trifluoromethyl)piperidin-1-yl]cyclohexyl}quinazolin-4-amine], with 7.06; and `Cc1ccc2ncnc(NC3CCC(N4CCC(C(F)(F)F)CC4)CC3)c2c1` (stereo not shown) [Example 2-12, 6-methyl-N-{4-[4-(trifluoromethyl)piperidin-1-yl]cyclohexyl}quinazolin-4-amine], with 5.03. The value for `Cc1ccc2ncnc(NC3CCC(N4CCCC(C(F)(F)F)C4)CC3)c2c1` (stereo not shown) [Example 2-13, 6-methyl-N-{4-[3-(trifluoromethyl)piperidin-1-yl]cyclohexyl}quinazolin-4-amine] was 7.77; that for `Cc1ccc2ncnc(NC3CCC(N4CCCCC4C(F)(F)F)CC3)c2c1` (stereo not shown) [Example 2-14, 6-methyl-N-{4-[2-(trifluoromethyl)piperidin-1-yl]cyclohexyl}quinazolin-4-amine] was 5.49; that for `Cc1ccc2ncnc(NC3CCC(N4CCCCC4C(F)(F)F)CC3)c2c1` (stereo not shown) [Example 2-15, 6-methyl-N-{4-[2-(trifluoromethyl)piperidin-1-yl]cyclohexyl}quinazolin-4-amine] was 5.75. `Cc1ccc2ncnc(NC3CCC(N4CCCC(C(F)(F)F)C4)CC3)c2c1` (stereo not shown) [Example 2-16, 6-methyl-N-{4-[3-(trifluoromethyl)piperidin-1-yl]cyclohexyl}quinazolin-4-amine] had a pIC50 of 6.57. The value for `Cc1ccc2ncnc(N[C@H]3CC[C@H](NC4CCOCC4)CC3)c2c1` [Example 2-17, (trans)-N1-(6-methylquinazolin-4-yl)-N4-(tetrahydro-2H-pyran-4-yl)cyclohexane-1,4-diamine] was 7.11; that for `Cc1ccc2ncnc(N[C@H]3CC[C@H](NCC4CCOCC4)CC3)c2c1` [Example 2-18, trans-N-(6-methylquinazolin-4-yl)-N′-(tetrahydro-2H-pyran-4-ylmethyl)cyclohexane-1,4-diamine] was 7.34.

Take `Cc1ccc2ncnc(N[C@H]3CC[C@H](N[C@H]4CCOC(C)(C)C4)CC3)c2c1` [Example 2-19, trans-N-[(4S)-2,2-dimethyltetrahydro-2H-pyran-4-yl]-N′-(6-methylquinazolin-4-yl)cyclohexane-1,4-diamine]: the pIC50 is 7.27. For `Cc1ccc2ncnc(N[C@H]3CC[C@H](NCc4cccs4)CC3)c2c1` [Example 2-20, trans-N-(6-methylquinazolin-4-yl)-N′-(thiophen-2-ylmethyl)cyclohexane-1,4-diamine], the pIC50 was 7.35.

In the case of `Cc1ccc2ncnc(N[C@H]3CC[C@H](N[C@@H](C)C4CC4)CC3)c2c1` [Example 2-21, trans-N-[(1S)-1-cyclopropylethyl]-N′-(6-methylquinazolin-4-yl)cyclohexane-1,4-diamine], the pIC50 was 7.14.

For `Cc1ccc2ncnc(N[C@H]3CC[C@H](N[C@@H](C)CC(F)(F)F)CC3)c2c1` [Example 2-22, trans-N-(6-methylquinazolin-4-yl)-N′-[(1S)-3,3,3-trifluoro-1-methylpropyl]cyclohexane-1,4-diamine], the pIC50 is 7.17. The value for `Cc1ccc2ncnc(N[C@H]3CC[C@H](N[C@@H](C)C(C)(C)O)CC3)c2c1` [Example 2-23, (3S)-2-methyl-3-({trans-4-[(6-methylquinazolin-4-yl)amino]cyclohexyl}amino)butan-2-ol] was 6.91; that for `Cc1ccc2ncnc(N[C@H]3CC[C@H](NC(C)C)CC3)c2c1` [Example 2-24, trans-N-(1-methylethyl)-N′-(6-methylquinazolin-4-yl)cyclohexane-1,4-diamine] was 7.36. For the molecule `Cc1ccc2ncnc(N[C@H]3CC[C@H](NCC4CC4)CC3)c2c1` [Example 2-25, trans-N-(cyclopropylmethyl)-N′-(6-methylquinazolin-4-yl)cyclohexane-1,4-diamine], the negative-log IC50 (pIC50) was 7.51. Then `Cc1ccc2ncnc(N[C@H]3CC[C@H](NCc4ccnn4C)CC3)c2c1` [Example 2-26, trans-N-[(1-methyl-1H-pyrazol-5-yl)methyl]-N′-(6-methylquinazolin-4-yl)cyclohexane-1,4-diamine], with 7.33. The value for `Cc1ccc2ncnc(N[C@H]3CC[C@H](NCC4(C)COC4)CC3)c2c1` [Example 2-27, trans-N-[(3-methyloxetan-3-yl)methyl]-N′-(6-methylquinazolin-4-yl)cyclohexane-1,4-diamine] was 7.11. Then `Cc1ccc2ncnc(N[C@H]3CC[C@H](NCCC(F)(F)F)CC3)c2c1` [Example 2-28, trans-N-(6-methylquinazolin-4-yl)-N′-(3,3,3-trifluoropropyl)cyclohexane-1,4-diamine], with 7.60. On to `Cc1ccc2ncnc(N[C@H]3CC[C@H](NCC(C)(C)C)CC3)c2c1` [Example 2-29, trans-N-(2,2-dimethylpropyl)-N′-(6-methylquinazolin-4-yl)cyclohexane-1,4-diamine], for which the negative logarithm of the IC50 (pIC50) was 7.16. The molecule `Cc1ccc2ncnc(N[C@H]3CC[C@H](N[C@@H](C)C(F)F)CC3)c2c1` [Example 2-30, trans-N-[(1S)-2,2-difluoro-1-methylethyl]-N′-(6-methylquinazolin-4-yl)cyclohexane-1,4-diamine] gave a pIC50 of 6.90. Against the preceding molecule, the pIC50 is 0.26 log units lower.
